The record followed here is patent US20110262442A1, “COMPOSITIONS FOR TREATING CNS DISORDERS” (Adenios, Inc., priority 2009, published 2011).

Bounds are passed on as bounds.

One experiment deals with Z310 cells. Put plainly: Jurkat cell migration across Z310-seeded Transwell (choroid plexus). The format is cell-based, murine. The note with it: Z310 cells on Transwell, migrated cells counted after 24 hours, n=1. On the procedure: The choroid plexus (“CP”) controls lymphocyte migration into the CNS. The CP expresses the A1 and A2A adenosine receptors. EAE is prevented in mice when A2A adenosine receptor activity is blocked. EAE is enhanced when the A1 adenosine receptor is missing. It was hypothesized that A2A adenosine receptor activation promotes lymphocyte migration across the CP. Z310 cells are a murine choroid plexus cell line. To test the hypothesis, Transwell membranes were seeded with Z310 cells and allowed to grow to confluencey. 2×10^6 Jurkat cells were added to the upper chamber with or with out NECA (n=1, general AR agonist), CCPA (n=1, AAR agonist), CGS 21860 (n=1, A2AAR agonist), or DMSO vehicle (n=1). After 24 hours, migrated cells in the lower chamber were counted. Values are relative to the number of cells that migrate through non-Z310 seeded transwells and the results are shown in FIG. 12.

For a further experiment, the system named is hCMEC/D3 cells. Put plainly: cAMP levels in human brain endothelial cells (cAMP Screen kit). The format is cell-based. The note with it: 15 minutes treatment, various concentrations (CCPA: at high levels). The method, then: Adenosine receptor activation regulates cAMP levels in cells. In order to determine the sensitivity of human brain endothelial cells to adenosine receptor induced cAMP regulation, human brain endothelial cells were cultured with adenosine receptor agonists at various concentrations, followed by cAMP level analysis, as shown in FIG. 13.
HCMECD3 cells were grown to confluencey on 24 well plates. As adenosine receptor (“AR”) stimulation is known to influence cAMP levels, cells were treated with or without various concentrations of NECA (general AR agonist), CCPA (A1 AR agonist), CGS 21860 (A2A AR agonist), DMSO vehicle, or Forksolin (induces cAMP). After 15 minutes, lysis buffer was added and the cells were frozen at −80 C to stop the reaction. Duplicate samples were used for each condition. cAMP levels were assayed using a cAMP Screen kit (Applied Biosystems, Foster City, Calif.).

For experiment [1], the system named is blood brain barrier. Put plainly: Evans Blue dye extravasation across the blood brain barrier in mice immunized for EAE. The class given is in vivo. The note with it: WT EAE mice; 100 μl 0.01 nM on day 1, 3, 5, 7, 9; dye on day 10. The method, then:
In order to determine if activation of adenosine receptors would induce extravazation of Evans Blue dye across the blood brain barrier (BBB), mice were first treated on day one with NECA, a non-selective adenosine receptor agonist (n=2, 100 μl 0.01 nM); and, PBS as a vehicle control (n=2, 100 μl). On day 2 mice were then immunized with CFA-MOG35-55 and pertussis to induce EAE. Then NECA or PBS was administered every other day on day 3, day 5, day 7 and day 9. On day 10, mice were injected intravenously with 200 μl 1% Evans Blue dye ([…] total dye injected). Six hours after administration of Evans Blue, mice were anesthetized with a ketamine/xylazine mix and perfused via the left ventricle with ice cold PBS. Brains were harvested and homogenized in n,n-dimethylformamide (DMF) at 5 μl/mg (v:w). Tissue was incubated for 72 hours at room temperature in DMF to extract the dye. Following extraction, the tissue/solvent mixture was centrifuged at 500×g for 30 minutes and 100 μl of supernatant was read on a BioTex spectrophotometer at 620 nm.

Experiment [2] has as its system blood brain barrier. Put plainly: Fluorimetric analysis of labeled dextrans in brain after i.v. drug administration. The class given is in vivo, mice. The method, then: C57BL/6 mice from Jackson Laboratories were used as wild types. All mice used were aged 7-9 weeks and weighed between 20-25 g. All rats were aged 8 weeks and weighed 200-220 g. Mice and rats were bred and housed under specific pathogen-free conditions.
The adenosine receptor agonists NECA, CCPA and CGS 21860 were purchased from Tocris. Each was dissolved in DMSO then diluted in PBS to the desired concentration; in most cases final DMSO concentrations were <0.5% (vol/vol). For vehicle controls, DMSO was diluted in PBS to the same concentration. Dehydrated dextrans labeled with either FITC or Texas Red were purchased from Invitrogen and re-suspended in PBS to 10 mg ml^−1. All experiments involving dextran injection used 0.5 mg dextran in PBS. In experiments where drug and dextran were injected concomitantly, 0.5 mg of dextran was mixed with the drug to the desired concentration in a final volume of 200 μl. All injections were retro-orbital i.v. with a 27-gauge needle. In the SCH 58261 experiment, groups were administered vehicle or SCH 58261 for 4 d. Vehicle/drug and dextrans were injected on day 5 and tissues were collected 3 h after vehicle/drug administration. In Lexiscan experiments, Lexiscan was administered i.v. with 3 injections, 5 min apart and tissues were collected at 15 min unless otherwise indicated.
In dose-response experiments and experiments with the A1 AR and A2A AR knock-out mice, drugs and dextrans were injected concomitantly. After 3 h, the mice were anesthetized with ketamine/xylazine and subjected to a nose cone containing isoflurane. They were perfused with 25-50 ml ice-cold PBS through the left ventricle of the heart then decapitated. Their brains were removed, weighed and frozen for later analysis.
Ice-cold 50 mM Tris-Cl (pH 7.6) was added to frozen brains (100 μl per 100 mg brain) and were to thawed on ice. They were homogenized manually with ˜45 strokes of a dounce homogenizer in plastic 1.5 ml microfuge tubes then spun at 16.1 g in a microfuge for 30 min at room temperature (rt). The supernatants were transferred to new tubes and an equal volume absolute methanol was added. The samples were spun again at 16.1 g for 30 min at rt. Supernatant (200 μl) was transferred to a Corning costar 96 well black polystyrene assay plate (clear bottom). Additionally, a series of standards containing 0.001-10 μg ml^−1 dextran in 50% Tris-Cl/50% absolute methanol (vol/vol) was added to each plate. Absolute concentrations of dextrans were derived from these standard curves. Fluorimetric analysis was performed on a BioTek Synergy 4. FITC-dextran was detected at 488/519 (excitation/emission) and Texas Red-dextran was detected at 592/618.

Where [3] appears, read: WT mice, 3 h after i.v. administration.

For `CCNC(=O)[C@H]1O[C@@H](n2cnc3c(N)ncnc32)[C@H](O)[C@@H]1O` [NECA, 5′-N-ethylcarboxamidoadenosine], the “lymphocyte (Jurkat) migration across the CP” value in the experiment with Z310 cells is “induced migration”. In addition, the cAMP levels result in the experiment on hCMEC/D3 cells is “increased cAMP levels”. In the experiment on blood brain barrier [1], the “BBB permeability (Evans Blue dye) over PBS control EAE mice” value was “increase in BBB permeability”. For the same compound, in the experiment with blood brain barrier [2] (A1−/− mice, 3 h after i.v. administration), the “levels of i.v.-administered 10,000 Da dextrans in brain compared to wild type mice” value is “significantly lower levels”. Besides, the “levels of i.v.-administered 10,000 Da dextrans in brain compared to wild type mice” value in the experiment with blood brain barrier [2] (A2A−/− mice, 3 h after i.v. administration) is “significantly lower levels”. For the same compound, in the experiment on blood brain barrier [2] (WT mice, 10,000 Da FITC-dextran co-administered with drug at T0), the “time of maximum entry of labeled dextran into the CNS post-treatment” value was in the range of 4 to 6 h. For the same compound, in the experiment on blood brain barrier [2] (setting [3]), the “CNS entry of 10,000 Da dextrans compared to vehicle” value is reported as “dose-dependent increase” and the “CNS entry of 70,000 Da dextrans compared to vehicle” value is recorded as “dose-dependent increase”. For the same compound, the “time post-treatment by which dextran levels returned to baseline” value in the experiment on blood brain barrier [2] (WT mice, Texas Red-dextran injected after drug, 19.5 h collection time) is no more than 18 h. Also, the “detectable levels of dextran in the brain at 8 h post-treatment” value with blood brain barrier [2] (WT mice, Texas Red-dextran injected at indicated time after drug, 9.5 h collection time) is on record as “decreased from the maximum”. Besides, in the experiment on blood brain barrier [2] (WT mice, i.v., 100 μl of 25 μM), the “dose giving maximum entry of dextrans into the CNS” value is 0.80 µg.
